Measured values as given in patent US8067445B2, “N,N-disubstituted aminoalkylbiphenyl antagonists of prostaglandin D2 receptors” (Panmira Pharmaceuticals, LLC, priority 2008, dated 2011).

Each molecule was assayed against T1, human DP1 receptor (Homo sapiens, UniProt Q13258) (assay: DP1 radioligand binding assay ([3H]BWA868C, platelet membranes)). Conditions: [3H]BWA868C binding, human platelet membranes; read-out: hDP1.
T1 construct: tissue Biological Specialty Corporation; host or cells: human platelet membranes
T1 sequence (Q13258 1-359): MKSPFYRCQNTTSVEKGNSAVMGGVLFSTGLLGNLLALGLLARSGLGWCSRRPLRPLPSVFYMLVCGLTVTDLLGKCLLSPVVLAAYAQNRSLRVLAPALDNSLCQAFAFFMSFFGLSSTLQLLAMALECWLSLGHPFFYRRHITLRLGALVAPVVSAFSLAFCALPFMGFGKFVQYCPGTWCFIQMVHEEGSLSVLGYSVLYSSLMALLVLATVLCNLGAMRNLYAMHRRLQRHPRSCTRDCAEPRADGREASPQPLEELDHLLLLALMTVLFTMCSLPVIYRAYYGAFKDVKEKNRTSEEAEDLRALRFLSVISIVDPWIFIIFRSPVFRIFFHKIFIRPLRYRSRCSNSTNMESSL
Method: The ability of a compound to bind to the human DPI receptor was evaluated via a radioligand membrane binding assay using the DP1 selective synthetic ligand [^311]BWA868C. Packed human platelets (Biological Specialty Corporation), were resuspended in 6 volumes of Hepes/HBSS buffer (10 mM Hepes, 1 mM DTT in Hanks Balanced Salt Solution (HBSS)), lysed and centrifuged at 75,000×g to pellet the membranes. Membranes were resuspended in Hepes/HBSS buffer to approximately 12 mg protein/ml. Membranes (20 μg protein/well) are incubated in 96-well plates with 2 nM [^3H]BWA868C and test compound in Assay Buffer (50 mM Hepes, 10 mM MnCl2, 1 mM EDTA, plus or minus 0.2% human serum albumin, pH 7.4) for 60 minutes at room temperature. The reactions are terminated by rapid filtration through Whatman GF/C glass fibre filter plates. The filter plates were pre-soaked in 0.33% polyethylenimine for 30 minutes at room temperature then washed in Wash Buffer (50 mM Hepes, 0.5 M NaCl pH 7.4) prior to harvesting. After harvesting, the filter plates are washed 3 times with 1 ml cold Wash Buffer then dried. Scintillant is then added to the plates and the radioactivity retained on the filters is determined on a Packard TopCount (Perkin Elmer). Specific binding is determined as total radioactive binding minus non-specific binding in the presence of 10 μM BW A868C. IC50s were determined using GraphPad prism analysis of drug titration curves.

Structure (SMILES)	IC50 [µM]
CCN(Cc1cc(C(F)(F)F)ccc1-c1cc(CC(=O)O)ccc1OC)C(=O)COc1ccc(Cl)cc1 [Compound 1-93, [2′-({[2-(4-Chloro-phenoxy)-acetyl]-ethyl-amino}-methyl)-6-methoxy-4′-trifluoromethyl-biphenyl-3-yl]-acetic acid]	1 to 30
CCN(Cc1ccccc1)C(=O)N(CC)Cc1cc(C(F)(F)F)ccc1-c1cc(CC(=O)O)ccc1OC [Compound 1-94, [2′-(3-Benzyl-1,3-diethyl-ureidomethyl)-6-methoxy-4′-trifluoromethyl-biphenyl-3-yl]-acetic acid]	1 to 30
CCN(Cc1cc(C(F)(F)F)ccc1-c1cc(CC(=O)O)ccc1OC)C(=O)NCc1ccccc1 [Compound 1-96, [2′-(3-Benzyl-1-ethyl-ureidomethyl)-6-methoxy-4′-trifluoromethyl-biphenyl-3-yl]-acetic acid]	1 to 30
CCN(Cc1cc(C(F)(F)F)ccc1-c1cc(CC(=O)O)ccc1Cl)C(=O)OCc1ccccc1 [Compound 1-110, {2′-[(Benzyloxycarbonyl-ethyl-amino)-methyl]-6-chloro-4′-trifluoromethyl-biphenyl-3-yl}-acetic acid]	1 to 30
CCN(Cc1cc(C(F)(F)F)ccc1-c1cc(CC(=O)O)ccc1OC)C(=O)C(C)(C)Oc1ccc(Cl)cc1 [Compound 1-118, [2′-({[2-(4-Chloro-phenoxy)-2-methyl-propionyl]-ethyl-amino}-methyl)-6-methoxy-4′-trifluoromethyl-biphenyl-3-yl]-acetic acid]	1 to 30
CCOc1ccc(CC(=O)O)cc1-c1ccc(C(F)(F)F)cc1CN(CC)C(=O)OCc1ccccc1 [Compound 1-129, {2′-[(Benzyloxycarbonyl-ethyl-amino)-methyl]-6-ethoxy-4′-trifluoromethyl-biphenyl-3-yl}-acetic acid]	1 to 30
CCN(Cc1cc(C(F)(F)F)ccc1-c1cc(CC(=O)O)ccc1OC)C(=O)NCc1ccc(Cl)c(Cl)c1 [Compound 1-152, {2′-[3-(3,4-Dichloro-benzyl)-1-ethyl-ureidomethyl]-6-methoxy-4′-trifluoromethyl-biphenyl-3-yl}-acetic acid]	1 to 30
CCN(Cc1cc(NC(C)=O)ccc1-c1cc(CC(=O)O)ccc1OC)C(=O)OCc1ccccc1 [Compound 1-153, {4′-Acetylamino-2′-[(benzyloxycarbonyl-ethyl-amino)-methyl]-6-methoxy-biphenyl-3-yl}-acetic acid]	1 to 30
CCN(Cc1cc(NS(C)(=O)=O)ccc1-c1cc(CC(=O)O)ccc1OC)C(=O)OCc1ccccc1 [Compound 1-155, {2′-[(Benzyloxycarbonyl-ethyl-amino)-methyl]-4′-methanesulfonylamino-6-methoxy-biphenyl-3-yl}-acetic acid]	1 to 30
CCN(Cc1cc(C(F)(F)F)ccc1-c1cc(CC(=O)O)ccc1OC)C(=O)NCc1cc(Cl)cc(Cl)c1 [Compound 1-165, {2′-[3-(3,5-Dichloro-benzyl)-1-ethyl-ureidomethyl]-6-methoxy-4′-trifluoromethyl-biphenyl-3-yl}-acetic acid]	1 to 30
CCN(Cc1cc(C(F)(F)F)ccc1-c1cc(CC(=O)O)ccc1OC)C(=O)NCc1ccc(F)cc1 [Compound 1-176, {2′-[1-Ethyl-3-(4-fluoro-benzyl)-ureidomethyl]-6-methoxy-4′-trifluoromethyl-biphenyl-3-yl}-acetic acid]	1 to 30
CCN(Cc1cc(C(F)(F)F)ccc1-c1cc(CC(=O)O)ccc1OC)C(=O)NCc1cccc(Cl)c1 [Compound 1-177, {2′-[3-(3-Chloro-benzyl)-1-ethyl-ureidomethyl]-6-methoxy-4′-trifluoromethyl-biphenyl-3-yl}-acetic acid]	1 to 30
CCN(Cc1cc(C(F)(F)F)ccc1-c1cc(CC(=O)O)ccc1OC)C(=O)NCc1cc(F)cc(F)c1 [Compound 1-178, {2′-[3-(3,5-Difluoro-benzyl)-1-ethyl-ureidomethyl]-6-methoxy-4′-trifluoromethyl-biphenyl-3-yl}-acetic acid]	1 to 30
CCN(Cc1cc(C(F)(F)F)ccc1-c1cc(CC(=O)O)ccc1OC)C(=O)N[C@H](C)c1ccc(Cl)cc1 [Compound 1-179, (2′-{3-[(R)-1-(4-Chloro-phenyl)-ethyl]-1-ethyl-ureidomethyl}-6-methoxy-4′-trifluoromethyl-biphenyl-3-yl)-acetic acid]	1 to 30
CCN(Cc1cc(C(F)(F)F)ccc1-c1cc(CC(=O)O)ccc1OC)C(=O)N[C@@H](C)c1ccc(Cl)cc1 [Compound 1-180, (2′-{3-[(S)-1-(4-Chloro-phenyl)-ethyl]-1-ethyl-ureidomethyl}-6-methoxy-4′-trifluoromethyl-biphenyl-3-yl)-acetic acid]	1 to 30
CCNC(=O)N(CC)Cc1cc(C(F)(F)F)ccc1-c1cc(CC(=O)O)ccc1OC [Compound 1-181, [2′-(1,3-Diethyl-ureidomethyl)-6-methoxy-4′-trifluoromethyl-biphenyl-3-yl]-acetic acid]	1 to 30
CCN(Cc1cc(F)ccc1-c1cc(CC(=O)O)ccc1OC)C(=O)OCc1ccccc1 [Compound 1-183, {2′-[(Benzyloxycarbonyl-ethyl-amino)-methyl]-4′-fluoro-6-methoxy-biphenyl-3-yl}-acetic acid]	1 to 30
CCN(Cc1cc(F)ccc1-c1cc(CC(=O)O)ccc1OC)C(C)=O [Compound 1-184, {2′-[(Acetyl-ethyl-amino)-methyl]-4′-fluoro-6-methoxy-biphenyl-3-yl}-acetic acid]	1 to 30
CCN(Cc1cc(F)ccc1-c1cc(CC(=O)O)ccc1OC)C(=O)NCc1ccc(Cl)cc1 [Compound 1-185, {2′-[3-(4-Chloro-benzyl)-1-ethyl-ureidomethyl]-4′-fluoro-6-methoxy-biphenyl-3-yl}-acetic acid]	1 to 30
CCN(Cc1cc(F)ccc1-c1cc(CC(=O)O)ccc1OC)C(=O)C1CC1 [Compound 1-186, {2′-[(Cyclopropanecarbonyl-ethyl-amino)-methyl]-4′-fluoro-6-methoxy-biphenyl-3-yl}-acetic acid]	1 to 30

Next, values leading:

IC50 [µM]	Structure (SMILES)
1 to 30	CCN(Cc1cc(C(F)(F)F)ccc1-c1cc(CC(=O)O)ccc1OC)C(=O)OCc1cc(F)cc(F)c1 [Compound 1-40, (2′-{[(3,5-Difluoro-benzyloxycarbonyl)-ethyl-amino]-methyl}-6-methoxy-4′-trifluoromethyl-biphenyl-3-yl)-acetic acid]
1 to 30	CCN(Cc1cc(C(F)(F)F)ccc1-c1cc(CC(=O)O)ccc1OC)C(=O)OCc1ccc(F)cc1 [Compound 1-41, (2′-{[Ethyl-(4-fluoro-benzyloxycarbonyl)-amino]-methyl}-6-methoxy-4′-trifluoromethyl-biphenyl-3-yl)-acetic acid]
1 to 30	CCN(Cc1cc(C(F)(F)F)ccc1-c1cc(CC(=O)O)ccc1OC)C(=O)OCc1ccc(Cl)cc1 [Compound 1-42, (2′-{[(4-Chloro-benzyloxycarbonyl)-ethyl-amino]-methyl}-6-methoxy-4′-trifluoromethyl-biphenyl-3-yl)-acetic acid]
1 to 30	CCN(Cc1cc(C(F)(F)F)ccc1-c1cc(CC(=O)O)ccc1OC)C(=O)OCc1cccc(Cl)c1 [Compound 1-43, (2′-{[(3-Chloro-benzyloxycarbonyl)-ethyl-amino]-methyl}-6-methoxy-4′-trifluoromethyl-biphenyl-3-yl)-acetic acid]
1 to 30	CCN(Cc1cc(C(F)(F)F)ccc1-c1cc(CC(=O)O)ccc1OC)C(=O)OC(C)c1ccc(Cl)cc1 (centres unmarked) [Compound 1-44, [2′-({[1-(4-Chloro-phenyl)-ethoxycarbonyl]-ethyl-amino}-methyl)-6-methoxy-4′-trifluoromethyl-biphenyl-3-yl]-acetic acid]
1 to 30	CCN(Cc1cc(C(F)(F)F)ccc1-c1cc(CC(=O)O)ccc1OC)C(=O)C(C)Oc1ccccc1 (centres unmarked) [Compound 1-45, (2′-{[Ethyl-(2-phenoxy-propionyl)-amino]-methyl}-6-methoxy-4′-trifluoromethyl-biphenyl-3-yl)-acetic acid]
1 to 30	CCN(Cc1cc(C(F)(F)F)ccc1-c1cc(CC(=O)O)ccc1OC)C(=O)COC [Compound 1-46, (2′-{[Ethyl-(2-methoxy-acetyl)-amino]-methyl}-6-methoxy-4′-trifluoromethyl-biphenyl-3-yl)-acetic acid]
1 to 30	CCN(Cc1cc(C(F)(F)F)ccc1-c1cc(CC(=O)O)ccc1OC)C(=O)COc1ccccc1 [Compound 1-48, (2′-{[Ethyl-(2-phenoxy-acetyl)-amino]-methyl}-6-methoxy-4′-trifluoromethyl-biphenyl-3-yl)-acetic acid]
1 to 30	CCN(Cc1cc(C(F)(F)F)ccc1-c1cc(CC(=O)O)ccc1OC)C(=O)COCc1ccccc1 [Compound 1-92, (2′-{[(2-Benzyloxy-acetyl)-ethyl-amino]-methyl}-6-methoxy-4′-trifluoromethyl-biphenyl-3-yl)-acetic acid]
